Data as given in patent US20110129504A1, “COMPOSITION FOR CONTROLLING LIPASE CATALYZED REACTIONS” (NESTEC S.A., priority 2007, published 2011).

Legend:
Rhizomucor miehei lipase [1] = target: T1, Rhizomucor miehei lipase (Rhizomucor miehei, UniProt P19515); experiment: Biphasic decane/buffer system: lipolytic hydrolysis of p-nitrophenylpalmitate; type: biochemical; details: monoglyceride 1.3 E-3 M in decane, p-nitrophenylpalmitate 2E-4M, phosphate buffer pH 5.5, 3,3 E-6 M lipase; 410 nm; vs reference without surfactant
Description: (§1) A biphasic system was prepared in glass test tubes with the following composition: • Upper oil phase is composed of 7 ml decane in the absence (control) or presence of (1,3 E-3M) monoglyceride and 20 ul tricaprylin or p-nitrophenypalmitate (2E-4M) • Aqueous phase is composed of 2 ml phosphate buffer, pH 5.5 containing 3,3 E-6 M Rhizomucor miehei lipase. The caprylic acid generation in the presence and absence of monoglycerides (surfactant) is monitored by GC-FID. 100 ul of the upper oil phase are taken and added to 900 ul Chloroform before direct injection into the GC. The nitrophenol generation is followed by spectroscopic analysis at 410 nm of the aqueous phase. FIGS. 7 and 8 show the amount of caprylic acid formed after the lipolytic hydrolysis of the p-nitropheylpalmitate and tricaprylin in the presence of Sn1 (hydrolysable surfactants) or Sn2 (non-hydrolysable) monoglycerides. […] This is an indication that with the used monoglyceride concentration (the concentration was constant at 1.3 E-3 M) not enough surfactant is adsorbing to the water-oil interface, since the Sn2M20:4 is too lipohilic and partitions more into the bulk oil than to the interface.

Rhizomucor miehei lipase [2] = target: T1, Rhizomucor miehei lipase; experiment: Biphasic decane/buffer system: lipolytic hydrolysis of tricaprylin; type: biochemical; details: monoglyceride 1,3 E-3M in decane, 20 ul tricaprylin, phosphate buffer pH 5.5, 3,3 E-6 M lipase; vs no surfactant; GC-FID
Description: as §1

lipase = experiment: TIM gastro-intestinal model (TNO) digestion of Tricaprylin emulsion; type: biochemical
Description: 8 ml Tricaprylin containing 2.0 g Sn2-Monopalmitin (non-cleavable surfactant) was mixed with 200 ml phosphate buffer pH 5.5 and 20 mg/ml starch (emulsifier) using an Ultra Turrax for 2 minutes, and subsequent sonification for 10 minutes. The reference emulsion system contains the same amount of tricaprylin and starch, however, no Sn2-monopalmitin. Model digestion runs of the 2 samples were performed using a gastro-intestinal model system provided by TNO. Physiological conditions (e.g. temperature, enzyme type and load, bile salt concentration, pH) were predefined via the TIM programming system. The hydrolysis of Tricaprylin was followed by monitoring the caprylic acid release after passing the different gastro-intestinal compartments. […] The extraction of the generated fatty acids after passing the different compartments was performed by taking 100 ul of the reaction mixture, adding 900 ul chloroform together with 100 ul Chloridric acid 1M. The samples were vortexed and centrifuged at 5000 rpm for 10 min. 500 ul of the supernatant was taken and directly injected into a GC-FID. 3 samples were analysed for each reaction time at each gastro-intestinal compartment.
Additional experiments were performed where sn-2 monopalmitin was replaced Lysophosphotidilcholine (LysoPC). The effect of LysoPC on fat gastric digestion were studied.

[3] = Pendant drop interfacial tension at buffer/decane interface; type: physicochemical
Description: The interfacial tension of pure Tricaprylin (free of any residues of polar lipids), should remain above 30 mN/m. Therefore, a more interfacial active molecule (like monocaprylin), has the capacity to exclude the triglyceride from the interface.

T1 sequence (P19515 95-363): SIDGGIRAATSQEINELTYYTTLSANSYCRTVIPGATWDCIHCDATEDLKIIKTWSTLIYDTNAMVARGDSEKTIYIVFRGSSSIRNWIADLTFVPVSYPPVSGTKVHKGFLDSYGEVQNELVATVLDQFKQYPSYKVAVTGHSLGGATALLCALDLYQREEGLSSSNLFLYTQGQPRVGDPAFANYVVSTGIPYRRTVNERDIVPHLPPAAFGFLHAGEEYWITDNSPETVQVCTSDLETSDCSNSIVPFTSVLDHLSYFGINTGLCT

Compound	kinetics of nitrophenol formation from p-nitrophenylpalmitate (Rhizomucor miehei lipase [1])	kinetics of lipolytic caprylic acid formation from tricaprylin (Rhizomucor miehei lipase [2])	further results
CCCCCCCC(=O)OCC(O)CO (centres unmarked) [Sn1 M8]	quite similar to the observations made in the reference system		
CCCCCCCCCCCC(=O)OCC(O)CO (centres unmarked) [Sn1 M12]	quite similar to the observations made in the reference system		
CCCCCCCCCCCCCCCC(=O)OCC(O)CO (centres unmarked) [Sn1-M16]	quite similar to the observations made in the reference system		
CCCCCCCC(=O)OC(CO)CO [Sn2-M8]	significant reduction	reduced	
CCCCCCCCCCCC(=O)OC(CO)CO [Sn2-M12]	significant reduction	reduced	
CCCCCCCCCCCCCCCC(=O)OC(CO)CO [Sn2-M16, Sn-2 Monopalmitin]	significant reduction	reduced	Caprylic acid (C8) detected after passing through the ileum and jejunum (lipase; 8 ml Tricaprylin containing 2.0 g surfactant, phosphate buffer pH 5.5, starch emulsifier, vs reference emulsion without surfactant, GC-FID, FIG. 2): almost no caprylic acid is detected; caprylic acid content in the lumen of the stomach, duodenum, jejunum and in the efflux (lipase; compared with the ileum/jejunum result (almost no caprylic acid), FIGS. 3, 4 and 5): A similar result is obtained
CCCCCCCCCCCCCCCCCCCC(=O)OC(CO)CO [monoarachidin, Sn-2 monoarachidin]			interfacial tension between the buffer and the decane solution ([3]; as a function of titrated (added) surfactant, FIG. 8): induces a decrease of the measured interfacial tension
CCCCCCCC(=O)OCC(O)CO (centres unmarked) [monocaprylin]			interfacial activity compared with caprylic acid (C8) and dicaprylin (DC8) ([3]; buffer/decane interface, FIG. 9): considerably more interfacially active
Lysophosphotidilcholine [LysoPC]			gastric lipolysis of triglycerides (lipase; sn-2 monopalmitin replaced by LysoPC, lumen of stomach, FIG. 3): considerable effect in decreasing gastric lipolysis
